In paper PMC3895464 (Bioorganic & medicinal chemistry, 2013):

Tests used:
[1] = test system: HT29, HCA-7 and Apc10.1 cells; assay: Cell growth assays, IC50 ranges over the three cell lines; format: cell-based; settings: read-out: IC50 values (tumor cell survival)
Apc10.1 cells = assay: Cell proliferation assay; format: cell-based, mice; settings: Mus musculus, read-out: IC50 cell proliferation, Apc10.1, Has2 −
HCA-7 cells = assay: Cell proliferation assay; format: cell-based; settings: Homo sapiens, HCA-7, read-out: IC50 cell proliferation, HCA-7, Has2 −
[2] = test system: COX-2 and 5-LOX expression in HT29 cells; assay: COX-2 and 5-LOX expression in HT29 cells; format: cell-based, human; settings: Figure 2B
HT29 cells = assay: Cell proliferation assay; format: cell-based; settings: Homo sapiens, HT-29, read-out: IC50 cell proliferation, HT29, Has2 −
[3] = test system: pre-neoplastic Apc10.1 cells; assay: MTT assay on pre-neoplastic Apc10.1 cells; format: cell-based; settings: Apc10.1, 24 h

IC50 (HT29 cells) [µM] | Structure (SMILES) | IC50 [1] [µM] | IC50 (Apc10.1 cells) [µM] | IC50 (HCA-7 cells) [µM] | COX-2 and 5-LOX levels [2] | cytotoxic activity (MTT) [3]
– | Cc1ccc(-c2cc(C(F)(F)F)nn2-c2ccc(S(N)(=O)=O)cc2)cc1 [Celecoxib, reference compound] | 2 to 4.2 | – | – | – | –
75 ± 8.3 | CC1(C)Cc2c(-c3ccccc3)c(-c3ccc(Cl)cc3)c(CC(=O)O)n2C1 [Licofelone, [6-(4-chlorophenyl)-2,2-dimethyl-7-phenyl-2,3-dihydro-1H-pyrrolizin-5-yl]acetic acid] | 45 to 75 | 45 ± 7.2 | 48 ± 5.2 | substantial inhibition | –
– | CC(C)(C)C1=CC(=NNC(=O)c2ccncc2)C=C(C(C)(C)C)C1=O [BQIH, N’- (3,5-di-tert-butyl-4-oxocyclohexa-2,5-dienylidene) isonicotinohydrazide] | 12 to 20 | – | – | substantial inhibition | –
– | CC(C)(C)C1=CC(=NNC(=O)c2ccccc2)C=C(C(C)(C)C)C1=O [BQBH, N’- (3,5-di-tert-butyl-4-oxocyclohexa-2,5-dienylidene) benzohydrazide] | 12 to 20 | – | – | substantial inhibition | –
– | CC(C)(C)C1=CC(=NNC(=O)c2cccnc2)C=C(C(C)(C)C)C1=O [BQNH, N’- (3,5-di-tert-butyl-4-oxocyclohexa-2,5-dienylidene) nicotinohydrazide] | 6.5 to 11 | – | – | substantial inhibition | reasonable cytotoxic activity
